Reference: US4141986A, “Antibiotics 890A2 and 890A5” (Merck & Co., Inc., priority 1977, dated 1979)

Test system: Vibrio percolans ATCC 8461
Test: Bioassay I, agar plate disc-diffusion potency per HAEA308 unit
Format: cell-based
Details: Vibrio percolans ATCC 8461, Bioassay I
Protocol: An agar plate disc-diffusion method is employed using either Vibrio percolans ATCC 8461 or Salmonella gallinarum MB-1287 as tester organism. A purified sample of antibiotic 890A1 is used as standard. Antibiotic 890A1 is prepared according to the procedure set forth in Example 5.
Plates containing Vibrio percolans ATCC 8461 are prepared as follows:
A lyophilized culture of Vibrio percolans ATCC 8461 is suspended in 15 ml. of a sterilized medium containing 8 g./liter of Difco Nutrient Broth and 2 g./liter of yeast extract in distilled water "nutrient broth-yeast extract" (herein after designated NBYE). The culture is incubated overnight on a rotary shaker at 28° C. […]
Filter paper discs of one-half inch diameter are dipped into the solution to be assayed, and are placed on the agar. […] The diameter of the zone of inhibition is measured after appropriate incubation (9-18 hours at 37° C. for Salmonella gallinarum MB-1287 or 12-24 hours at 25° C. for Vibrio percolans ATCC 8461.) If necessary, dilutions of the solutions to be assayed are made in 0.05M potassium phosphate buffer, pH 7.4 "potassium phosphate buffer" (hereinafter referred to as KPB), or in deionized water.
Calculations of potencies proceed as follows: a slope is determined by measuring the zone diameters of a solution of antibiotic 890A2 or 890A5 and of a four-fold dilution (in KPB) of this solution. […]

CC(=O)NC=CSC1=C(C(=O)O)N2C(=O)C(C(C)O)C2C1 (stereo not shown) [Antibiotic 890A5]
antibiotic potency (ratio of bioactivity to HAEA308): 12 units per HAEA308 unit
